These results are taken from article PMC10820528, “New Rare Triterpene Glycosides from Pacific Sun Star, Solaster pacificus, and Their Anticancer Activity” (Marine Drugs, 2023).

Series [1] relates to human embryonic kidney HEK 293 cells. Put plainly: cells. It counts as cell-based. The following applies: for IC50: read-out: IC50, HEK 293. As for the experimental part:
(§1) We calculated the inhibiting concentration that cause death of 50% of cells (IC50) and the selectivity index (SI) of the compounds tested (Table 4).
(§2) The human embryonic kidney HEK 293 cells (ATCC® CRL-1573™), breast cancer MDA-MB-231 cells (ATCC® HTB-26™), and colorectal carcinoma HCT 116 cells (ATCC® CCL-247™) were purchased from the American Type Culture Collection (Manassas, VA, USA). The HEK 293 and MDA-MB-231 cells were cultured in DMEM; the HCT 116 cells were cultured in the McCoy’s 5A medium at 37 °C in a humidified atmosphere containing 5% CO2. The culture media were supplemented with 10% heat-inactivated FBS and a 1% penicillin/streptomycin solution. The number of passages was carefully controlled, and contamination by Mycoplasma was monitored on a regular basis.
(§3) Compounds 1–3, and 6–8 were dissolved in sterile dimethyl sulfoxide (DMSO), to prepare stock concentrations of 20 mM. Cells were treated with serially diluted 1–3, 6–8 (0.3–100 µM) (with the culture medium used as diluent) (the final concentration of DMSO was less than 0.5%). The vehicle control was the cells treated with an equivalent volume of DMSO (the final concentration was less than 0.5%) for all of the presented experiments.
(§4) HEK 293 (1.0 × 10^4/200 µL), HCT 116 (1.0 × 10^4/200 µL), and MDA-MB-231 (0.8 × 10^4/200 µL) cells were seeded in a 96-well plate and incubated for 24 h at 37 °C in a CO2 incubator. […] The cells were subsequently incubated with 15 µL of the MTS reagent for 3 h. The absorbance of each well was measured at 490/630 nm on a Power Wave XS microplate reader (BioTek, Winooski, VT, USA).
(§5) The IC50 concentration was calculated using the AAT-Bioquest® online calculator [24]. The selectivity index (SI) was calculated as described previously, using the following formula: SI = IC50 of the compounds for normal cells (HEK 293) divided by IC50 of the same compounds for the human colorectal adenocarcinoma and breast cancer (HCT 116 and MDA-MB-231) cell lines.

For series [2], the system named is breast cancer MDA-MB-231 cells. Put plainly: cells. Conditions: for IC50: read-out: IC50, MDA-MB-231. It counts as cell-based. The procedure: as §1, §2, §3, §4, §5
Series [3] deals with colorectal carcinoma HCT 116 cells. In words: cells. It counts as cell-based. Conditions: for IC50: Homo sapiens, read-out: IC50, HCT 116. As for the experimental part: We determined the cytotoxicity of compounds 1–3 and 6–8 against human embryonic kidney HEK 293, colorectal carcinoma HCT 116, and breast cancer MDA-MB-231 cells by the MTS assay, after 24 h of treatment with the compounds. We calculated the inhibiting concentration that cause death of 50% of cells (IC50) and the selectivity index (SI) of the compounds tested (Table 4).
as §2, §3, §4, §5

The next series deals with MDA-MB-231 cells. The following applies: non-toxic concentration; cited from earlier work.
The subject of another series is HT-29 cells. The following applies: non-toxic concentration; cited from earlier work.
A further series has as its system RPMI-7951 cells. Conditions: non-toxic concentration; cited from earlier work.
The next series concerns SK-MEL-2 cancer cells. Further details: method as in PMID 35323516. Conditions: non-toxic concentrations; cited from earlier work.
The test system of a further series is JB6 Cl41 cells. Details: method as in PMID 35323516. The following applies: induced by chemical carcinogens (EGF and TPA) or ionizing radiation (X-rays and UVB), non-toxic concentrations; cited from earlier work.
[4] abbreviates: MTS assay, cisplatin, 48 h of cell incubation, mean ± SD.
[5] abbreviates: Homo sapiens, HEK293, MTS assay, 24 h of cell incubation, mean ± SD.
[6] abbreviates: Homo sapiens, MDA-MB-231, MTS assay, 24 h of cell incubation, mean ± SD.
The mark [7] stands for this setting: HCT-116, MTS assay, 24 h of cell incubation, mean ± SD.

Like-named read-outs stand apart in the source and are kept apart here.

As a reminder, the IC50 is the concentration at which inhibition is half-maximal. With `N.N.[Cl][Pt][Cl]` [Cisplatin, cisplatin, reference compound], the results for the IC50 in series [1] (setting [4]) and in series [2] (setting [4]) were 64.6 ± 1.5 µM and 34.5 ± 0.5 µM, respectively.
`C=C(C)C1C2CC3(C)C4=CCC5C(C)(C)C(OC6OCC(O)C(O)C6OC6OC(C)C(O)C(O)C6OC6OCC(O)C(O)C6O)CCC5(C)C4CCC13C(=O)O2` [Compound 1, 3β-O-[β-D-xylopyranosyl-(1→2)-β-D-quinovopyranosyl-(1→2)-β-D-xylopyranosyl]-23,24,25,26,27-pentanor-5α-lanosta-7,20(22)-diene-18(16)-lactone]: the IC50 in series [1] (setting [5]) turned out to be 27 ± 0.3 µM; in series [2] (setting [6]), 51.2 ± 0.8 µM; in series [3] (setting [7]), 81 ± 3.2 µM.
On to `CO[C@@H]1[C@@H](O)[C@H](O[C@@H]2[C@@H](O)[C@H](O[C@H]3[C@H](O)[C@@H](O)[C@H](O[C@H]4[C@H](O[C@H]5CC[C@]6(C)C7=C(CC[C@H]6C5(C)C)[C@]5(C)C[C@H](O)[C@H]([C@@](C)(O)CCC=C(C)C)[C@@]5(CO)CC7)OC[C@@H](O)[C@@H]4O)O[C@@H]3C)O[C@H](CO)[C@H]2O)OC[C@H]1O` [Compound 3, (20S)-3β-O-[3-O-methyl-β-D-xylopyranosyl-(1→3)-β-D-glucopyranosyl-(1→4)-β-D-quinovopyranosyl-(1→2)-β-D-xylopyranosyl]-16β,18,20-trihydroxy-5α-lanosta-8(9),24-diene], for which the “cytotoxic activity in words, HEK 293” value in series [1] is on record as “Moderate”. The results for the IC50 in series [1] (setting [5]), in series [2] (setting [6]) and in series [3] (setting [7]) were 52.8 ± 0.8 µM, 36.7 ± 3.3 µM and 42.2 ± 0.4 µM, respectively. In series [2], the “cytotoxic activity in words, MDA-MB-231” value is on record as “Moderate”. Also, the “SI (selectivity index), MDA-MB-231” value in series [2] (mean IC50 against normal cells (HEK 293)/mean IC50 against MDA-MB-231, 24 h) was found to be 1.4. Moreover, the “cytotoxic activity in words, HCT 116” value in series [3] is recorded as “Moderate”. Moreover, the “SI (selectivity index), HCT 116” value in series [3] (mean IC50 against normal cells (HEK 293)/mean IC50 against HCT 116, 24 h) was 1.25.
As for `COC1C(O)COC(OC2C(O)C(CO)OC(OC3C(C)OC(OC4C(OC5CCC6(C)C7=C(CCC6C5(C)C)C5(C)CC(OC(C)=O)C6C(C)(C=CC=C(C)C)OC(=O)C65CC7)OCC(O)C4O)C(O)C3O)C2O)C1O` [Compound 6, 3β-O-[3-O-methyl-β-D-xylopyranosyl-(1→3)-β-D-glucopyranosyl-(1→4)-β-D-quinovopyranosyl-(1→2)-β-D-xylopyranosyl]-16β-acetoxyholosta-8(9),22E,24-triene], the 50% inhibitory concentration (IC50) in series [1] (setting [5]) is 15.3 ± 1.2 µM; in series [2] (setting [6]), 29.8 ± 2.1 µM; in series [3] (setting [7]), 25.5 ± 1.4 µM.
Regarding `CC(=O)OC1CC2(C)C3=CCC4C(C)(C)C(OC5OCC(O)C(O)C5OC5OC(C)C(O)C(O)C5OC5OCC(O)C(O)C5O)CCC4(C)C3CCC23C(=O)OC(C)(C=CC=C(C)C)C13` (centres unmarked) [Compound 7, cucumarioside B1], the concentration for half-maximal inhibition (IC50) is 28.5 ± 1.5 µM in series [1] (Homo sapiens, HEK293, 24 h); 34 ± 2.9 µM in series [2] (Homo sapiens, MDA-MB-231, 24 h); 35.6 ± 0.6 µM in series [3] (HCT-116, 24 h).
Taken in the same sequence, the figures for `COC1C(O)COC(OC2C(O)C(CO)OC(OC3C(C)OC(OC4C(OC5CCC6(C)C7CCC89C(=O)OC(C)(C=CC=C(C)C)C8C(OC(C)=O)CC9(C)C7=CCC6C5(C)C)OCC(O)C4O)C(O)C3O)C2O)C1O` (centres unmarked) [Compound 8, cucumarioside A5] were 6.2 ± 0.7 µM, 13.1 ± 4.2 µM and 11.4 ± 2.7 µM.
With `CO[C@@H]1[C@@H](O)[C@H](O[C@@H]2[C@@H](O)[C@H](O[C@H]3[C@H](O)[C@@H](O[C@@H]4OC[C@@H](O)[C@H](O)[C@H]4O)[C@H](O[C@H]4[C@H](O[C@H]5CC[C@]6(C)[C@@H]7CCC89C(=O)O[C@@](C)(/C=C\C=C(C)C)[C@H]8[C@@H](OC(C)=O)C[C@@]9(C)C7=CC[C@H]6C5(C)C)OC[C@@H](O)[C@@H]4O)O[C@@H]3C)O[C@H](CO)[C@H]2O)OC[C@H]1O` (some centres unmarked) [cucumarioside C1], the “colony formation of MDA-MB-231 cells” value in the series on MDA-MB-231 cells is on record as “almost completely suppress”. Besides, the “colony formation of HT-29 cells” value in the series with HT-29 cells is recorded as “almost completely suppress”. Further, the “colony formation of RPMI-7951 cells” value in the series with RPMI-7951 cells was “almost completely suppress”.
`COC1C(O)COC(OC2C(O)C(CO)OC(OC3C(C)OC(OC4C(OC5CCC6(C)C7CCC89C(=O)OC(C)(/C=C/C=C(C)C)C8C(OC(C)=O)CC9(C)C7=CCC6C5(C)C)OCC(O)C4O)C(OC4OCC(O)C(O)C4O)C3O)C2O)C1O` (centres unmarked) [cucumarioside C2]: the “colony formation of MDA-MB-231 cells” value with MDA-MB-231 cells is “almost completely suppress”. The “colony formation of HT-29 cells” value in the series on HT-29 cells was “almost completely suppress”. Besides, the “colony formation of RPMI-7951 cells” value with RPMI-7951 cells was “almost completely suppress”.
Regarding `COC1C(O)C(CO)OC(OC2C(O)C(CO)OC(OC3C(C)OC(OC4C(OC5CCC6(C)C7CCC89C(=O)OC(C)(C=CC=C(C)C)C8C(OC(C)=O)CC9(C)C7=CCC6C5(C)C)OCC(O)C4O)C(OC4OCC(O)C(O)C4O)C3O)C2O)C1O` (centres unmarked) [cucumarioside D], the “colony formation of SK-MEL-2 cancer cells” value in the series with SK-MEL-2 cancer cells was “highest inhibiting effect”. For the same molecule, in the series with JB6 Cl41 cells, the “neoplastic transformation of JB6 Cl41 cells” value was “significantly inhibit”.
Consider `CO[C@@H]1[C@@H](O)[C@H](O[C@@H]2[C@@H](O)[C@H](O[C@H]3[C@H](O)[C@@H](O[C@@H]4OC[C@@H](O)[C@H](O)[C@H]4O)[C@H](O[C@H]4[C@H](O[C@H]5CC[C@]6(C)[C@@H]7CCC89C(=O)O[C@@](C)(/C=C/C=C(C)C)[C@H]8[C@@H](OC(C)=O)C[C@@]9(C)C7=CC[C@H]6C5(C)C)OC[C@@H](O)[C@@H]4O)O[C@@H]3C)O[C@H](CO)[C@H]2O)O[C@H](CO)[C@H]1O` (some centres unmarked) [pacificusoside D], for which, in the series on SK-MEL-2 cancer cells, the “colony formation of SK-MEL-2 cancer cells” value was “highest inhibiting effect”. The “neoplastic transformation of JB6 Cl41 cells” value in the series on JB6 Cl41 cells is “significantly inhibit”.
Consider pacificusoside C, for which, in the series on MDA-MB-231 cells, the “colony formation of MDA-MB-231 cells” value is recorded as “almost completely suppress”. In addition, the “colony formation of HT-29 cells” value in the series with HT-29 cells is on record as “almost completely suppress”. Further, the “colony formation of RPMI-7951 cells” value in the series with RPMI-7951 cells is “almost completely suppress”.
